Reference: article PMC10257519 (European journal of medicinal chemistry, 2022)
Where two headings read alike, the source gives them in different places.

Key:
[1] = tested on: human retinal pigment epithelial RPE cells; test: Cell viability assay on normal cells; settings: at a maximum concentration of 30 μM
NCI 60 cell lines = test: NCI 60 cell five-dose assay; assay type: cell-based; settings: read-out: TGI (μM)
[2] = S9 fraction metabolic stability assay; assay type: in vitro ADME, human; settings: 0.02 mM substrate, NADPH, 37 °C, monitored over 2 h
[3] = tested on: HCT116 human colon cancer cells; test: Cell growth inhibition / viability assay
[4] = tested on: PARP1 cleavage in HCT116 cells; test: Western blot analysis of PARP1 cleavage; assay type: cell-based, human; settings: HCT116 cells treated for 24 h
[5] = tested on: acetyl–H3 and pan acetyl–lysine; test: Hyperacetylation assay by Western blot; assay type: cell-based, human; settings: 5 and 10 μM
[6] = reported earlier; cited from earlier work
[7] = Homo sapiens, HCT-116, read-out: IC50 ± SD (μM) (n = 3) on HCT116 cell line

Q: With COc1ccc(NC(=O)CCCCCCNC(=O)C(O)(O)C(F)(F)F)cc1 [Compound 55, N-(4-methoxyphenyl)-7-(3,3,3-trifluoro-2,2-dihydroxypropanamido)heptanamide] as the molecule, how does the “cell survival, RPE” value [1] read?
A: more than 50%

Q: Which IC (TGI) (NCI 60 cell lines) does the source give for O=C(CCCCCCNC(=O)C(O)(O)C(F)(F)F)Nc1ncc(-c2ccccc2)s1 [Compound 58, N-(5-phenylthiazol-2-yl)-7-(3,3,3-trifluoro-2,2-dihydroxypropanamido)heptanamide] here?
A: 17 µM

Q: Which “disappearance of the M+1 peak in S9 fraction” value [2] does the source give for O=C(CCCCCCNC(=O)C(O)(O)C(F)(F)F)Nc1nccs1 [Compound 60, N-(thiazol-2-yl)-7-(3,3,3-trifluoro-2,2-dihydroxypropanamido) heptanamide] here?
A: did not disappear over 2 h

Q: For COc1cc(NC(=O)CCCCCCNC(=O)C(O)(O)C(F)(F)F)cc(OC)c1OC [Compound 71, 7-(3,3,3-trifluoro-2,2-dihydroxypropanamido)-N-(3,4,5-trimethoxyphenyl)heptanamide], which IC50 [3, 7] is on record?
A: 3.45 ± 0.36 µM

Q: With O=C(CCCCCCNC(=O)C(O)(O)C(F)(F)F)Nc1nc2ccc(Br)cc2o1 [Compound 80, N-(6-bromobenzo[d]oxazol-2-yl)-7-(3,3,3-trifluoro-2,2-dihydroxypropanamido)heptanamide] as the molecule, how does the IC50 [3, 7] read?
A: 7.56 ± 0.73 µM

Q: Which “cleaved PARP1 (Western blot)” value [4] does the source give for COc1ccc2sc(NC(=O)CCCCCCNC(=O)C(O)(O)C(F)(F)F)nc2c1 [Compound 83, N-(5-methoxybenzo[d]thiazol-2-yl)-7-(3,3,3-trifluoro-2,2-dihydroxypropanamido)heptanamide] here?
A: Dose-dependent elevation

Q: Which “levels of acetylated H3 (Western blot)” value [5] does the source give for COc1ccc(-c2cnc(NC(=O)CCCCCCNC(=O)C(O)(O)C(F)(F)F)s2)cc1 [Compound 84, N-(5-(4-methoxyphenyl)thiazol-2-yl)-7-(3,3,3-trifluoro-2,2-dihydroxypropanamido)heptanamide] here?
A: increased levels

Q: What about the “levels of pan-acetyl-lysine (Western blot)” value [5] of the same molecule?
A: increased levels

Q: What about the “cleaved PARP1 (Western blot)” value [4] of the same molecule?
A: Absence of PARP1 cleavage

Q: Which “cleaved PARP1 (Western blot)” value [4] does the source give for O=C(CCCCCCNC(=O)C(O)(O)C(F)(F)F)Nc1ncc(-c2ccc(Br)cc2)s1 [Compound 85, N-(5-(4-bromophenyl)thiazol-2-yl)-7-(3,3,3-trifluoro-2,2-dihydroxypropanamido)heptanamide] here?
A: Dose-dependent elevation

Q: For OC(O)(c1c(F)c(F)c(-n2cc(-c3ccccc3)nn2)c(F)c1F)C(F)(F)F [Compound 89], which “HCT116 IC50” value ([3]; zinc-binding group screening, maximum concentration of 100 μM) is on record?
A: inactive

Q: For O=C(CCCCCCC(=O)C(F)(F)F)Nc1ccccc1 [Compound 91], which half-life [6] is on record?
A: less than 30 min

Q: With “N-phenyl-6-(3,3,3-trifluoro-2,2-dihydroxypropanamido)hexanamide [Compound 10b]” as the molecule, how does the IC50 ([3]; read-out: IC50 (μM) HCT116, effect of linker length, linker length n = 3–7) read?
A: 54.4 ± 6.02 µM
